This is an account of results in US20230322771A1, “HETEROCYCLIC GLP-1 AGONISTS” (Gasherbrum Bio, Inc., priority 2020, published 2023).

The first test deals with GLP-1 Receptor (Homo sapiens, UniProt P43220). Kind of test: GLP-1R agonist cAMP stimulation assay (HEK293/GLP1R/CRE-LUC cells, HTRF cAMP dynamic 2 kit). It counts as cell-based. The note with it: HEK293/CRE-Luc cell line (HDB) stably expressing GLP-1 Receptor; 30 min incubation at 37° C.; read-out: GLP1R cAMP Stimulation DR: EC50 (nM) [Species: Human, Assay Cell Line: HDB]. The protocol: Activation of GLP-1 receptor is known to stimulate cyclic AMP (cAMP) production in cells which indicates primary coupling to the Gαs subunit of the G protein heterotrimeric complex.
Sequence of GLP-1 Receptor (P43220 24-463): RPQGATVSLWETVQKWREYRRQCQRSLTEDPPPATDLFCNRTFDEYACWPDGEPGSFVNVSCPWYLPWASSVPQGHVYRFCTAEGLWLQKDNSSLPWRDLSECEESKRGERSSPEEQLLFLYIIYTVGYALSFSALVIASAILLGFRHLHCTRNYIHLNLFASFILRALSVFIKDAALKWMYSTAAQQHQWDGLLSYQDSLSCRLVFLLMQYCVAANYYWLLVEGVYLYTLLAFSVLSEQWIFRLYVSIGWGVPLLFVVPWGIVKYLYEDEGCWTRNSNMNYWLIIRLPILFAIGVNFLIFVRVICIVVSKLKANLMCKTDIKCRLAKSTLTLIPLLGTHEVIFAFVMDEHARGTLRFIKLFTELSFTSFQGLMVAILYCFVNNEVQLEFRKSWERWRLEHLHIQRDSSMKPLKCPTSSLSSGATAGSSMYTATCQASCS
To optimize functional activity directed toward Gαs coupling, a HEK293/CRE-Luc cell line developed by HDB stably expressing the GLP-1 Receptor was used. 200× concentration of compound working solutions were prepared (Agilent Technologies Bravo) with ½ log serial dilution in 384-well Echo LDV plate (Labcyte, Cat #LP-0200). 50 nL/well 200× concentration of compound working solutions were moved to 384-well white low volume plate (Greiner, Cat #784075) using Labcyte ECHO550. 1×10^5 cells/mL HEK293/GLP1R/CRE-LUC(HD Biosciences) cell suspensions prepared with assay buffer[DPBS containing 0.5 mM IBMX(Sigma, Cat #15879) and 0.1% BSA(GENVIEW, Cat #FA016-100 g)], 10 uL cell suspensions were added to each well of previous generated assay plate which already contains 50 nl compound at 200× concentration using ThermoFisher Multidrop Combi(1000 cells/well). Seal the plate and incubate at 37° C. with 5% CO2 for 30 min.
After incubation the cAMP assay signal was generated using cAMP dynamic 2 Kit (Cisbio). 5 μL cAMP-d2 working solution was added to each well, followed with 5 μL Anti-cAMP antibody-cryptate working solution added to each well using ThermoFisher Multidrop Combi. Incubate at room temperature for 1 hour protected from light. Read the fluorescence at 665 and 615 nm with Reader PerkinElmer EnVision.
% Activity=100%×(mean RLU of test sample−mean RLU of vehicle control)/(mean RLU of MAX control−mean RLU of vehicle control))
In the case of `Cc1cc(-n2nc3c(c2-n2ccn(-c4cccc(N5CCCS5(=O)=O)c4)c2=O)[C@H](C)N(C(=O)c2cc4cc(C5CCOCC5)ccc4n2[C@@]2(c4noc(=O)[nH]4)C[C@@H]2C)CC3)cc(C)c1F` [Compound 106a, 3-((1S,2S)-1-(2-((S)-3-(3-(3-(1,1-dioxidoisothiazolidin-2-yl)phenyl)-2-oxo-2,3-dihydro-1H-imidazol-1-yl)-2-(4-fluoro-3,5-dimethylphenyl)-4-methyl-4,5,6,7-tetrahydro-2H-pyrazolo[4,3-c]pyridine-5-carbonyl)-5-(tetrahydro-2H-pyran-4-yl)-1H-indol-1-yl)-2-methylcyclopropyl)-1,2,4-oxadiazol-5(4H)-one], the EC50 came to 0.7 nM.

As for `Cc1cc(-n2nc3c(c2-n2ccn(-c4ccc(N5CCCS5(=O)=O)cc4)c2=O)[C@H](C)N(C(=O)c2cc4cc(C5CCOCC5)ccc4n2[C@@]2(c4noc(=O)[nH]4)C[C@@H]2C)CC3)cc(C)c1F` [Compound 107a, 3-((1S,2S)-1-(2-((S)-3-(3-(4-(1,1-dioxidoisothiazolidin-2-yl)phenyl)-2-oxo-2,3-dihydro-1H-imidazol-1-yl)-2-(4-fluoro-3,5-dimethylphenyl)-4-methyl-4,5,6,7-tetrahydro-2H-pyrazolo[4,3-c]pyridine-5-carbonyl)-5-(tetrahydro-2H-pyran-4-yl)-1H-indol-1-yl)-2-methylcyclopropyl)-1,2,4-oxadiazol-5(4H)-one], the EC50 is 0.18 nM.

With `Cc1cc(-n2nc3c(c2-n2ccn(-c4ccc(S(=O)(=O)C5CC5)cc4)c2=O)[C@H](C)N(C(=O)c2cc4cc(C5CCOCC5)ccc4n2[C@@]2(c4noc(=O)[nH]4)C[C@@H]2C)CC3)cc(C)c1F` [Compound 108a, 3-((1S,2S)-1-(2-((S)-3-(3-(4-(cyclopropylsulfonyl)phenyl)-2-oxo-2,3-dihydro-1H-imidazol-1-yl)-2-(4-fluoro-3,5-dimethylphenyl)-4-methyl-4,5,6,7-tetrahydro-2H-pyrazolo[4,3-c]pyridine-5-carbonyl)-5-(tetrahydro-2H-pyran-4-yl)-1H-indol-1-yl)-2-methylcyclopropyl)-1,2,4-oxadiazol-5(4H)-one], the EC50 worked out at 0.043 nM.

For the compound `Cc1cc(-n2nc3c(c2-n2ccn(-c4cccc(CCS(C)(=O)=O)c4)c2=O)[C@H](C)N(C(=O)c2cc4cc(C5CCOCC5)ccc4n2[C@@]2(c4noc(=O)[nH]4)C[C@@H]2C)CC3)cc(C)c1F` [Compound 109a, 3-((1S,2S)-1-(2-((S)-2-(4-fluoro-3,5-dimethylphenyl)-4-methyl-3-(3-(3-(2-(methylsulfonyl)ethyl)phenyl)-2-oxo-2,3-dihydro-1H-imidazol-1-yl)-4,5,6,7-tetrahydro-2H-pyrazolo[4,3-c]pyridine-5-carbonyl)-5-(tetrahydro-2H-pyran-4-yl)-1H-indol-1-yl)-2-methylcyclopropyl)-1,2,4-oxadiazol-5(4H)-one], the EC50 turned out to be 0.24 nM.

Turning to `Cc1cc(-n2nc3c(c2-n2ccn(-c4ccc(CCS(C)(=O)=O)cc4F)c2=O)[C@H](C)N(C(=O)c2cc4cc(C5CCOCC5)ccc4n2[C@@]2(c4noc(=O)[nH]4)C[C@@H]2C)CC3)cc(C)c1F` [Compound 110a, 3-((1S,2S)-1-(2-((S)-2-(4-fluoro-3,5-dimethylphenyl)-3-(3-(2-fluoro-4-(2-(methylsulfonyl)ethyl)phenyl)-2-oxo-2,3-dihydro-1H-imidazol-1-yl)-4-methyl-4,5,6,7-tetrahydro-2H-pyrazolo[4,3-c]pyridine-5-carbonyl)-5-(tetrahydro-2H-pyran-4-yl)-1H-indol-1-yl)-2-methylcyclopropyl)-1,2,4-oxadiazol-5(4H)-one], the EC50 was found to be 0.05 nM.

As for `CCS(=O)(=O)C(C)c1ccc(-n2ccn(-c3c4c(nn3-c3cc(C)c(F)c(C)c3)CCN(C(=O)c3cc5cc(C6CCOCC6)ccc5n3[C@@]3(c5noc(=O)[nH]5)C[C@@H]3C)[C@H]4C)c2=O)c(F)c1` (stereo partly drawn) [Compound 111a, 3-((1S,2S)-1-(2-((4S)-3-(3-(4-(1-(ethylsulfonyl)ethyl)-2-fluorophenyl)-2-oxo-2,3-dihydro-1H-imidazol-1-yl)-2-(4-fluoro-3,5-dimethylphenyl)-4-methyl-4,5,6,7-tetrahydro-2H-pyrazolo[4,3-c]pyridine-5-carbonyl)-5-(tetrahydro-2H-pyran-4-yl)-1H-indol-1-yl)-2-methylcyclopropyl)-1,2,4-oxadiazol-5(4H)-one], the EC50 stood at 0.32 nM.

Regarding `CCS(=O)(=O)Cc1ccc(-n2ccn(-c3c4c(nn3-c3cc(C)c(F)c(C)c3)CCN(C(=O)c3cc5cc(C6CCOCC6)ccc5n3C3(c5noc(=O)[nH]5)CC3)[C@H]4C)c2=O)cc1` [Compound 112a, (S)-3-(1-(2-(3-(3-(4-((ethylsulfonyl)methyl)phenyl)-2-oxo-2,3-dihydro-1H-imidazol-1-yl)-2-(4-fluoro-3,5-dimethylphenyl)-4-methyl-4,5,6,7-tetrahydro-2H-pyrazolo[4,3-c]pyridine-5-carbonyl)-5-(tetrahydro-2H-pyran-4-yl)-1H-indol-1-yl)cyclopropyl)-1,2,4-oxadiazol-5(4H)-one], the EC50 is 0.17 nM.

In the case of `CCS(=O)(=O)C(C)c1ccc(-n2ccn(-c3c4c(nn3-c3cc(C)c(F)c(C)c3)CCN(C(=O)c3cc5cc(C6CCOCC6)ccc5n3C3(c5noc(=O)[nH]5)CC3)[C@H]4C)c2=O)c(F)c1` (stereo partly drawn) [Compound 113a, 3-(1-(2-((4S)-3-(3-(4-(1-(ethylsulfonyl)ethyl)-2-fluorophenyl)-2-oxo-2,3-dihydro-1H-imidazol-1-yl)-2-(4-fluoro-3,5-dimethylphenyl)-4-methyl-4,5,6,7-tetrahydro-2H-pyrazolo[4,3-c]pyridine-5-carbonyl)-5-(tetrahydro-2H-pyran-4-yl)-1H-indol-1-yl)cyclopropyl)-1,2,4-oxadiazol-5(4H)-one], the EC50 turned out to be 0.55 nM.

The same test, now with this note: HEK293/CRE-Luc cell line (HDB) stably expressing GLP-1 Receptor; 30 min incubation at 37° C.; read-out: GLP1R cAMP Stimulation DR: pEC50 (M) [Species: Human, Assay Cell Line: HDB] (converted).
With `Cc1cc(-n2nc3c(c2-n2ccn(-c4ccc(N5CCCS5(=O)=O)cc4)c2=O)[C@H](C)N(C(=O)c2cc4cc(C5CCOCC5)ccc4n2[C@@]2(c4noc(=O)[nH]4)C[C@@H]2C)CC3)cc(C)c1F` [Compound 107a, 3-((1S,2S)-1-(2-((S)-3-(3-(4-(1,1-dioxidoisothiazolidin-2-yl)phenyl)-2-oxo-2,3-dihydro-1H-imidazol-1-yl)-2-(4-fluoro-3,5-dimethylphenyl)-4-methyl-4,5,6,7-tetrahydro-2H-pyrazolo[4,3-c]pyridine-5-carbonyl)-5-(tetrahydro-2H-pyran-4-yl)-1H-indol-1-yl)-2-methylcyclopropyl)-1,2,4-oxadiazol-5(4H)-one], the EC50 was 0.17 nM.
